Consider seven compounds from EPA's CvTdb concentration-time database.

The subject of data set [1] is Rat. Kind of data set: concentration in brain after dosing. To be noted: 3 h; dosed: Fluorotelomer alcohol 8+2; 80 mg/kg; oral; Female; Harlan Sprague Dawley.
Data set [2] concerns Rat. Kind of data set: concentration in brain after dosing. To be noted: 12 h; dosed: Fluorotelomer alcohol 8+2; 80 mg/kg; oral; Female; Harlan Sprague Dawley.
For data set [3], the system named is Rat. Kind of data set: concentration in brain after dosing. Conditions: 1 h; dosed: Fluorotelomer alcohol 8+2; 80 mg/kg; oral; Female; Harlan Sprague Dawley.
Data set [4] relates to Rat. Nature of the data set: concentration in brain after dosing. To be noted: 6 h; dosed: Fluorotelomer alcohol 8+2; 80 mg/kg; oral; Female; Harlan Sprague Dawley.
In data set [5] the test system is Rat. Nature of the data set: concentration in kidney after dosing. Conditions: 12 h; dosed: Fluorotelomer alcohol 8+2; 24 mg/kg; oral; Male; Harlan Sprague Dawley.
Data set [6] concerns Rat. Nature of the data set: concentration in plasma after dosing. To be noted: dosed: Fluorotelomer alcohol 8+2, 12 mg/kg, oral, Male, Harlan Sprague Dawley.
In data set [7] the test system is Rat. Kind of data set: concentration in plasma after dosing. To be noted: dosed: Wyeth-14643, 1.0 mg/kg, oral, Male, Sprague-Dawley.
The test system of data set [8] is Rat. Kind of data set: concentration in plasma after dosing. To be noted: 5 min; dosed: Wyeth-14643; 2.0 mg/kg; iv; Male; Sprague-Dawley.
The test system of data set [9] is Rat. Nature of the data set: concentration in plasma after dosing. To be noted: 1 h; dosed: Wyeth-14643; 1.0 mg/kg; oral; Male; Sprague-Dawley.
The subject of data set [10] is Rat. Nature of the data set: concentration in plasma after dosing. Conditions: dosed: Wyeth-14643, 1.0 mg/kg, oral, Male, Sprague-Dawley. The source holds these as a separate data set.
The test system of data set [11] is Rat. Kind of data set: concentration in plasma after dosing. To be noted: dosed: Wyeth-14643, 2.0 mg/kg, oral, Male, Sprague-Dawley.
Data set [12] deals with Rat. Nature of the data set: concentration in plasma after dosing. Conditions: 1 h; dosed: Di-n-butyl phthalate; 20 mg/kg; iv; Male; Sprague-Dawley.
In data set [13] the test system is Rat. Kind of data set: concentration in plasma after dosing. Conditions: 10 min; dosed: Di-n-butyl phthalate; 50 mg/kg; oral; Male; Sprague-Dawley.
Data set [14] concerns Rat. Nature of the data set: concentration in plasma after dosing. Conditions: 5 h; dosed: Di-n-butyl phthalate; 20 mg/kg; iv; Male; Sprague-Dawley.
Data set [15] deals with Rat. Nature of the data set: concentration in plasma after dosing. To be noted: 1 h; dosed: Di-n-butyl phthalate; 100 mg/kg; oral; Male; Sprague-Dawley.
Data set [16] deals with Rat. Kind of data set: concentration in plasma after dosing. To be noted: 2 h; dosed: Di-n-butyl phthalate; 20 mg/kg; iv; Male; Sprague-Dawley.
Data set [17] deals with Rat. Nature of the data set: concentration in plasma after dosing. Conditions: dosed: dichloroacetic acid, 10 mg/kg, oral, Male, Harlan Sprague Dawley.
Data set [18] relates to Rat. Kind of data set: concentration in plasma after dosing. Conditions: 0.25 h; dosed: dichloroacetic acid; 10 mg/kg; oral; Male; Harlan Sprague Dawley.
Data set [19] has as its system Rat. Kind of data set: concentration in brain after dosing. Conditions: 864 h; dosed: Perfluorodecanoic acid; 10 mg/kg; oral; Male; Harlan Sprague Dawley.
Data set [20] concerns Rat. Kind of data set: concentration in liver after dosing. To be noted: 1 h; dosed: Perfluorodecanoic acid; 10 mg/kg; oral; Female; Harlan Sprague Dawley.
The subject of data set [21] is Rat. Kind of data set: concentration in kidney after dosing. Conditions: 1848 h; dosed: Perfluorodecanoic acid; 10 mg/kg; oral; Male; Harlan Sprague Dawley.
The test system of data set [22] is Rat. Kind of data set: concentration in plasma after dosing. To be noted: dosed: Perfluorodecanoic acid, 2 mg/kg, iv, Male, F344.
Data set [23] deals with Rat. Nature of the data set: concentration in heart after dosing. To be noted: 5.333 h; dosed: Thiodiglycolic Acid; 20 mg/kg; iv; Female; Harlan Sprague Dawley.
Data set [24] relates to Rat. Kind of data set: concentration in heart after dosing. Conditions: 40 min; dosed: Thiodiglycolic Acid; 20 mg/kg; iv; Female; Harlan Sprague Dawley.
Data set [25] has as its system Rat. Nature of the data set: concentration in heart after dosing. To be noted: 10 min; dosed: Thiodiglycolic Acid; 20 mg/kg; iv; Male; F344.
Data set [26] deals with Rat. Nature of the data set: concentration in heart after dosing. Conditions: 3 h; dosed: Thiodiglycolic Acid; 20 mg/kg; iv; Female; Harlan Sprague Dawley.
Data set [27] deals with Rat. Kind of data set: concentration in thymus after dosing. Conditions: 40 min; dosed: Thiodiglycolic Acid; 20 mg/kg; iv; Female; Harlan Sprague Dawley.
Data set [28] has as its system Rat. Kind of data set: concentration in thymus after dosing. To be noted: 2 h; dosed: Thiodiglycolic Acid; 20 mg/kg; iv; Female; Harlan Sprague Dawley.
The test system of data set [29] is Rat. Nature of the data set: concentration in thymus after dosing. To be noted: 1 h; dosed: Thiodiglycolic Acid; 20 mg/kg; iv; Male; Harlan Sprague Dawley.
For data set [30], the system named is Rat. Nature of the data set: concentration in thymus after dosing. Conditions: 5.333 h; dosed: Thiodiglycolic Acid; 20 mg/kg; iv; Female; Harlan Sprague Dawley.
Data set [31] deals with Rat. Kind of data set: concentration in plasma after dosing. To be noted: 1 h; dosed: Thiodiglycolic Acid; 20 mg/kg; iv; Female; Harlan Sprague Dawley.
In data set [32] the test system is Rat. Nature of the data set: concentration in heart after dosing. Conditions: 20 min; dosed: Bis 2-Chloroethoxy Methane; 20 mg/kg; iv; Female; F344.
The subject of data set [33] is Rat. Nature of the data set: concentration in liver after dosing. Conditions: 4 h; dosed: Bis 2-Chloroethoxy Methane; 20 mg/kg; iv; Male; F344.
Data set [34] concerns Rat. Nature of the data set: concentration in thymus after dosing. To be noted: 7 h; dosed: Bis 2-Chloroethoxy Methane; 20 mg/kg; iv; Male; F344.
For data set [35], the system named is Rat. Kind of data set: concentration in plasma after dosing. To be noted: 4 h; dosed: Bis 2-Chloroethoxy Methane; 20 mg/kg; iv; Female; F344.
Data set [36] deals with Rat. Kind of data set: concentration in thymus after dosing. Conditions: 1 h; dosed: Bis 2-Chloroethoxy Methane; 20 mg/kg; iv; Female; F344.
In data set [37] the test system is Rat. Kind of data set: concentration in plasma after dosing. Conditions: 10 min; dosed: Bis 2-Chloroethoxy Methane; 20 mg/kg; iv; Male; F344.
The subject of data set [38] is Rat. Kind of data set: concentration in thymus after dosing. Conditions: 1 h; dosed: Bis 2-Chloroethoxy Methane; 20 mg/kg; iv; Female; F344. This is another data set of the same source.

`OCCC(F)(F)C(F)(F)C(F)(F)C(F)(F)C(F)(F)C(F)(F)C(F)(F)C(F)(F)F` [Fluorotelomer alcohol 8+2]: the concentration in brain stood at 7770 ng/g in the data set on Rat [1], 571 ng/g in the data set with Rat [2], 3370 ng/g in the data set on Rat [3] and 1310 ng/g in the data set with Rat [4]. The concentration in kidney with Rat [5] amounted to 187 ng/g. Besides, the values for the concentration in plasma in the data set with Rat [6] (0.75 h) and with Rat [6] (12 h) were 318 ng/mL and 6.78 ng/mL, respectively.

Consider `Cc1cccc(Nc2cc(Cl)nc(SCC(=O)O)n2)c1C`, for which the concentration in plasma in the data set with Rat [7] (0.25 h) amounted to 341 ng/mL; in the data set on Rat [7] (4 h) it was 214 ng/mL; in the data set with Rat [8] it was 7290 ng/mL; in the data set with Rat [9] it was 755 ng/mL; with Rat [10] (0.5 h), 1180 ng/mL; in the data set on Rat [10] (6 h), 202 ng/mL. Also, the concentration in plasma came to 1230 ng/mL with Rat [11] (0.5 h) and 529 ng/mL in the data set with Rat [11] (5 h).

Regarding `CCCCOC(=O)c1ccccc1C(=O)O` [Mono-n-butyl phthalate], the concentration in plasma in the data set with Rat [12] was 3480 ng/mL; in the data set on Rat [13], 26100 ng/mL; with Rat [14], 1030 ng/mL; with Rat [15], 27100 ng/mL; in the data set with Rat [16], 1670 ng/mL.

Regarding `O=C(O)C(Cl)Cl` [dichloroacetic acid], the concentration in plasma came out at 398 ng/mL with Rat [17] (2 min), 637 ng/mL with Rat [17] (0.5 h) and 908 ng/mL with Rat [18].

As to `O=C(O)C(F)(F)C(F)(F)C(F)(F)C(F)(F)C(F)(F)C(F)(F)C(F)(F)C(F)(F)C(F)(F)F` [Perfluorodecanoic acid], the concentration in brain in the data set with Rat [19] amounted to 917 ng/g. In the data set with Rat [20], the concentration in liver stood at 48000 ng/g. The concentration in kidney in the data set on Rat [21] was 4700 ng/g. The concentration in plasma is 6490 ng/mL with Rat [22] (6 h) and 2790 ng/mL in the data set on Rat [22] (864 h).

Regarding `O=C(O)CSCC(=O)O` [Thiodiglycolic Acid], the concentration in heart in the data set with Rat [23] turned out to be 321 ng/g; in the data set on Rat [24], 3040 ng/g; with Rat [25], 8260 ng/g; with Rat [26], 558 ng/g. In addition, the concentration in thymus in the data set on Rat [27] was determined as 3420 ng/g; in the data set on Rat [28], 2180 ng/g; in the data set with Rat [29] it was 2310 ng/g; in the data set with Rat [30] it was 1080 ng/g. For the same compound, the concentration in plasma in the data set on Rat [31] was 4150 ng/mL.

The compound `ClCCOCOCCCl` [Bis 2-Chloroethoxy Methane] displayed a concentration in heart in the data set with Rat [32] of 6800 ng/g. The concentration in liver in the data set with Rat [33] was 86.1 ng/g. Besides, the concentration in thymus came out at 17 ng/g in the data set with Rat [34], 2300 ng/g in the data set with Rat [36] and 3420 ng/g in the data set on Rat [38]. Moreover, the concentration in plasma in the data set on Rat [35] is 86.2 ng/mL; in the data set with Rat [37], 9480 ng/mL.
